Test results reported in ChEMBL document CHEMBL4507303, “Data for DCP probe TP-004” (2021).

Key:
[1] = target: Mitogen-activated protein kinase kinase kinase 5 (Homo sapiens) (UniProt Q99683); conditions: Compound concentration 1000.0 nM
[2] = target: Aurora kinase A (Homo sapiens) (UniProt O14965); conditions: Compound concentration 1000.0 nM
[3] = target: Tyrosine-protein kinase receptor UFO (Homo sapiens) (UniProt P30530); conditions: Compound concentration 1000.0 nM
[4] = target: Bone morphogenetic protein receptor type-1A (Homo sapiens) (UniProt P36894); conditions: Compound concentration 1000.0 nM
[5] = target: Cytoplasmic tyrosine-protein kinase BMX (Homo sapiens) (UniProt P51813); conditions: Compound concentration 1000.0 nM
[6] = target: Cyclin-dependent kinase 4 (Homo sapiens) (UniProt P11802); conditions: Compound concentration 1000.0 nM
Chain of Cyclin-dependent kinase 4 (Homo sapiens) (P11802 whole entry): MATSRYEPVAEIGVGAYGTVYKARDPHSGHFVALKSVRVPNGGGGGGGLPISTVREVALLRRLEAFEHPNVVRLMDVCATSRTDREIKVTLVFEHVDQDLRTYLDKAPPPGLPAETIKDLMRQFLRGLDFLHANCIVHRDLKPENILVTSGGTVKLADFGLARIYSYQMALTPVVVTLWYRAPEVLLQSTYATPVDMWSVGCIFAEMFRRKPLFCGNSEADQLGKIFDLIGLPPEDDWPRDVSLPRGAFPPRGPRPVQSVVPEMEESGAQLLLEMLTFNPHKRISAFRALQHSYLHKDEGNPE

[7] = target: Cyclin-dependent kinase 4 (Homo sapiens) (UniProt P11802); conditions: Compound concentration 1000.0 nM; remark: listed apart in the source
[8] = target: Cyclin-dependent kinase 7 (Homo sapiens) (UniProt P50613); conditions: Compound concentration 1000.0 nM
Chain of Cyclin-dependent kinase 7 (Homo sapiens) (P50613 whole entry): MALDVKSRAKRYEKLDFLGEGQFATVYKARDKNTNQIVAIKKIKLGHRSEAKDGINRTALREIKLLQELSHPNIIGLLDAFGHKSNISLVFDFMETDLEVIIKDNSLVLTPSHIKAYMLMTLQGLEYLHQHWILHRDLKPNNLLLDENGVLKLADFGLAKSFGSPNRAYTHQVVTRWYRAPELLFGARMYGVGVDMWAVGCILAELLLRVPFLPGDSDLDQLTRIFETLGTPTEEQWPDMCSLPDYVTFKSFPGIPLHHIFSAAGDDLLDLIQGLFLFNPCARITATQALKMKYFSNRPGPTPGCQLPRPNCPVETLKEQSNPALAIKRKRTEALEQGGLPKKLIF

[9] = target: Cyclin-dependent kinase-like 2 (Homo sapiens) (UniProt Q92772); conditions: Compound concentration 1000.0 nM
[10] = target: Macrophage colony-stimulating factor 1 receptor (Homo sapiens) (UniProt P07333); conditions: Compound concentration 1000.0 nM
Chain of Macrophage colony-stimulating factor 1 receptor (Homo sapiens) (P07333 whole entry): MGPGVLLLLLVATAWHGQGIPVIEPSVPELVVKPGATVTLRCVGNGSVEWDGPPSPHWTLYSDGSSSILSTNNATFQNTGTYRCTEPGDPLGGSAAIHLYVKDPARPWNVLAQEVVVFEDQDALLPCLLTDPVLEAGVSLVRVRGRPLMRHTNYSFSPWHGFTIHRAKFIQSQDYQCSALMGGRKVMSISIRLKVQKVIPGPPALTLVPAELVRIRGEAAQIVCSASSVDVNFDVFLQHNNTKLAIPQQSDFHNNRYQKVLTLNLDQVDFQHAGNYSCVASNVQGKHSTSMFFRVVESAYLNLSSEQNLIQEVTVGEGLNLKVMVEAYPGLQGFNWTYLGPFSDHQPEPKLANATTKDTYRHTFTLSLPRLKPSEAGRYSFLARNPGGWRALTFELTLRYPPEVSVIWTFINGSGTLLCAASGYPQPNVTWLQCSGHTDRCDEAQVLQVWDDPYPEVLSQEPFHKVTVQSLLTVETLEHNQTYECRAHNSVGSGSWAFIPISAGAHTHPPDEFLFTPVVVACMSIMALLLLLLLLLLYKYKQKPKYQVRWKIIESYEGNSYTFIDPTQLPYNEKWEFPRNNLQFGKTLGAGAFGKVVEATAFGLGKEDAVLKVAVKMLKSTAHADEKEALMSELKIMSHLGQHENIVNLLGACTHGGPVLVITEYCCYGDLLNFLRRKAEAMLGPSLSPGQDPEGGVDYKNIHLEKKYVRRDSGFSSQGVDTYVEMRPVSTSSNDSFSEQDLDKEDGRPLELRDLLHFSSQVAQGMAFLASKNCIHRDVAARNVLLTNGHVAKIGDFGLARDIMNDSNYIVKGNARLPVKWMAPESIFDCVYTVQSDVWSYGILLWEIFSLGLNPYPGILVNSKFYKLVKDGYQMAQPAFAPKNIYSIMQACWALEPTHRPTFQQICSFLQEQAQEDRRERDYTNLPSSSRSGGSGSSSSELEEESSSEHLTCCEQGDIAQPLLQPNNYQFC

[11] = target: Death-associated protein kinase 2 (Homo sapiens) (UniProt Q9UIK4); conditions: Compound concentration 1000.0 nM
[12] = system: Epidermal growth factor receptor (Homo sapiens), P00533 [L858R]; conditions: Compound concentration 1000.0 nM
[13] = target: Ephrin type-B receptor 2 (Homo sapiens) (UniProt P29323); conditions: Compound concentration 1000.0 nM
[14] = target: Mitogen-activated protein kinase 6 (Homo sapiens) (UniProt Q16659); conditions: Compound concentration 1000.0 nM
[15] = target: Mitogen-activated protein kinase 4 (Homo sapiens) (UniProt P31152); conditions: Compound concentration 1000.0 nM
[16] = system: Fibroblast growth factor receptor 3 (Homo sapiens), P22607 [G697C]; conditions: Compound concentration 1000.0 nM
[17] = target: Receptor-type tyrosine-protein kinase FLT3 (Homo sapiens) (UniProt P36888); conditions: Compound concentration 1000.0 nM
[18] = system: eIF-2-alpha kinase GCN2 (Homo sapiens), Q9P2K8 [S808G]; conditions: Compound concentration 1000.0 nM
[19] = target: Tyrosine-protein kinase HCK (Homo sapiens) (UniProt P08631); conditions: Compound concentration 1000.0 nM
Chain of Tyrosine-protein kinase HCK (Homo sapiens) (P08631 2-526 limits assumed): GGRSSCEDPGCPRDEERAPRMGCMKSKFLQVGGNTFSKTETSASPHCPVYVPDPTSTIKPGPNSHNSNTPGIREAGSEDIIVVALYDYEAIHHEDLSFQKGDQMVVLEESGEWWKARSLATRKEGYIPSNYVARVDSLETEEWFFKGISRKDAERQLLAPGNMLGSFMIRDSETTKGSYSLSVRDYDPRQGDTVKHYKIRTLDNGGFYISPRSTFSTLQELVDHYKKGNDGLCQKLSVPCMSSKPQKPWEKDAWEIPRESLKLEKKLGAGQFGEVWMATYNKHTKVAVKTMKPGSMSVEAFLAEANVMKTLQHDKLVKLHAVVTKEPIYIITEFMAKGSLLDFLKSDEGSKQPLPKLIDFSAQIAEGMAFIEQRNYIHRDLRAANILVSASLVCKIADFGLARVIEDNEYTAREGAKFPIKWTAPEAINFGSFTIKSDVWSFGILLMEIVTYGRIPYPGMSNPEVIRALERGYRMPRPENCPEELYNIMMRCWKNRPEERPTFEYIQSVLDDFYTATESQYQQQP

[20] = target: Hormonally up-regulated neu tumor-associated kinase (Homo sapiens) (UniProt P57058); conditions: Compound concentration 1000.0 nM
[21] = target: Serine/threonine-protein kinase ICK (Homo sapiens) (UniProt Q9UPZ9); conditions: Compound concentration 1000.0 nM
[22] = system: Mast/stem cell growth factor receptor Kit (Homo sapiens), P10721 [V559D]; conditions: Compound concentration 1000.0 nM
[23] = target: Serine/threonine-protein kinase 10 (Homo sapiens) (UniProt O94804); conditions: Compound concentration 1000.0 nM
[24] = target: Leucine-rich repeat serine/threonine-protein kinase 2 (Homo sapiens) (UniProt Q5S007); conditions: Compound concentration 1000.0 nM
[25] = target: Serine/threonine-protein kinase MARK2 (Homo sapiens) (UniProt Q7KZI7); conditions: Compound concentration 1000.0 nM
[26] = target: Dual specificity mitogen-activated protein kinase kinase 6 (Homo sapiens) (UniProt P52564); conditions: Compound concentration 1000.0 nM
Chain of Dual specificity mitogen-activated protein kinase kinase 6 (Homo sapiens) (P52564 whole entry): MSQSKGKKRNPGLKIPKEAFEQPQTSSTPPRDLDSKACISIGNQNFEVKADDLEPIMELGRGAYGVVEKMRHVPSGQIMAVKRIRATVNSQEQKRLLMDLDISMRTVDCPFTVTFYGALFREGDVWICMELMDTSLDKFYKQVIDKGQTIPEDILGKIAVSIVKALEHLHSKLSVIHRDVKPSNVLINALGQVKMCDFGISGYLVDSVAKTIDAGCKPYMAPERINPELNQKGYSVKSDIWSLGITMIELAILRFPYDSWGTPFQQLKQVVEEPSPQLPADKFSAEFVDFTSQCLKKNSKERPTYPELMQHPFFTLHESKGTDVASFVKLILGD

[27] = target: Serine/threonine-protein kinase Nek9 (Homo sapiens) (UniProt Q8TD19); conditions: Compound concentration 1000.0 nM
Chain of Serine/threonine-protein kinase Nek9 (Homo sapiens) (Q8TD19 whole entry): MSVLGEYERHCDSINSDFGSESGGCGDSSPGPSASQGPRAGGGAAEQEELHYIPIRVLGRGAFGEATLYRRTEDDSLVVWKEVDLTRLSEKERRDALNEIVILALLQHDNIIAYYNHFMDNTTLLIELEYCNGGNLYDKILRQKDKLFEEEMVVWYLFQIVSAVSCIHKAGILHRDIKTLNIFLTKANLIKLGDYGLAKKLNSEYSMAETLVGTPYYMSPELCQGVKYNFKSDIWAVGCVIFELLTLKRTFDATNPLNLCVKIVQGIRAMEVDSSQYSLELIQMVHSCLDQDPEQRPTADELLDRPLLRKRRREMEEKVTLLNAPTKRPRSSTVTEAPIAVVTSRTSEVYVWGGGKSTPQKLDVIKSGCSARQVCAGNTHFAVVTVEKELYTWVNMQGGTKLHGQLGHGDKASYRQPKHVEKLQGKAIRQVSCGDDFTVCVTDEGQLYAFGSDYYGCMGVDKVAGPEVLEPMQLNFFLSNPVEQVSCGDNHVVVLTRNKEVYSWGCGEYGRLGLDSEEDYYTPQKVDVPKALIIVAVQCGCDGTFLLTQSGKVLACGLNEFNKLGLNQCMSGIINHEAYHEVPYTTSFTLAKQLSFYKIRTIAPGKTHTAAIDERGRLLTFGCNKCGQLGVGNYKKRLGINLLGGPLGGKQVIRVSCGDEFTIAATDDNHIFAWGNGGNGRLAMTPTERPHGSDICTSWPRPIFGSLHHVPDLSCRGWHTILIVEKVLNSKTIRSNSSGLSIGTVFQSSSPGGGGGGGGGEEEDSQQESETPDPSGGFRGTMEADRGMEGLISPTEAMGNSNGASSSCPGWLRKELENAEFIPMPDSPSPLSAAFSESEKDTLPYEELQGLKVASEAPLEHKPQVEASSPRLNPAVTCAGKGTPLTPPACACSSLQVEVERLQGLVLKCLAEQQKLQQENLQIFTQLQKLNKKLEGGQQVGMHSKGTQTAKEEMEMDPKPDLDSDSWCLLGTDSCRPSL

[28] = target: Serine/threonine-protein kinase NIM1 (Homo sapiens) (UniProt Q8IY84); conditions: Compound concentration 1000.0 nM
[29] = target: Platelet-derived growth factor receptor beta (Homo sapiens) (UniProt P09619); conditions: Compound concentration 1000.0 nM
[30] = system: Phosphatidylinositol 4,5-bisphosphate 3-kinase catalytic subunit alpha isoform (Homo sapiens), P42336 [I800L]; conditions: Compound concentration 1000.0 nM
Chain of Phosphatidylinositol 4,5-bisphosphate 3-kinase catalytic subunit alpha isoform (Homo sapiens), P42336 [I800L] (P42336 whole entry I800L, canonical isoform): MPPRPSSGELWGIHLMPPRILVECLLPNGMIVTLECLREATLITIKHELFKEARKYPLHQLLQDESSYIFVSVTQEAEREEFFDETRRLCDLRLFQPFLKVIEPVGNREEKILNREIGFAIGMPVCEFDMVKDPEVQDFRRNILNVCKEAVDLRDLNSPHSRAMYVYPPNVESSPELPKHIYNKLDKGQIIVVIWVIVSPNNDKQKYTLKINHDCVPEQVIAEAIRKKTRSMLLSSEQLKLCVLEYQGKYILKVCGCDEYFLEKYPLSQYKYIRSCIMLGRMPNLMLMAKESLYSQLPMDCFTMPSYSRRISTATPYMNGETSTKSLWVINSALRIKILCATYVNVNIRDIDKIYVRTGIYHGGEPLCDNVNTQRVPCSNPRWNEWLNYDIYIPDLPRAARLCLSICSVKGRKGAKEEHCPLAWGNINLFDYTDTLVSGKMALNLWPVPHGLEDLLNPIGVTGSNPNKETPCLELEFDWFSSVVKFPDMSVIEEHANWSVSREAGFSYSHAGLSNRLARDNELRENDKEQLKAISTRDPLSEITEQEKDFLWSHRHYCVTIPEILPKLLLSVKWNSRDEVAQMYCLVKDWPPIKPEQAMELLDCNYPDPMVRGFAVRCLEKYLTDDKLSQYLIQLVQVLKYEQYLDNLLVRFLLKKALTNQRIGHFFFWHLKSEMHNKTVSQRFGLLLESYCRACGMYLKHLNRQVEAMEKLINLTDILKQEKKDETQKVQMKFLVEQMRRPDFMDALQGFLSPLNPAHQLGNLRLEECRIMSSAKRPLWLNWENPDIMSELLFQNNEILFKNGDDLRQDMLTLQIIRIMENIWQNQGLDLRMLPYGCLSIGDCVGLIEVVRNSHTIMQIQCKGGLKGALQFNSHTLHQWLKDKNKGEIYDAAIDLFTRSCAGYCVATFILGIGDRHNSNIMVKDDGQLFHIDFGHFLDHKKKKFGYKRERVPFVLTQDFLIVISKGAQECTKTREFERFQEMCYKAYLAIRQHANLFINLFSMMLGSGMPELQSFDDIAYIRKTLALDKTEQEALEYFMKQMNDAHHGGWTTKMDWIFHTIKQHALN

[31] = target: Serine/threonine-protein kinase N2 (Homo sapiens) (UniProt Q16513); conditions: Compound concentration 1000.0 nM
[32] = target: Protein-tyrosine kinase 2-beta (Homo sapiens) (UniProt Q14289); conditions: Compound concentration 1000.0 nM
[33] = target: Uncharacterized serine/threonine-protein kinase SBK3 (Homo sapiens) (UniProt P0C264); conditions: Compound concentration 1000.0 nM
[34] = target: STE20-like serine/threonine-protein kinase (Homo sapiens) (UniProt Q9H2G2); conditions: Compound concentration 1000.0 nM
[35] = target: SRSF protein kinase 2 (Homo sapiens) (UniProt P78362); conditions: Compound concentration 1000.0 nM
[36] = target: Serine/threonine-protein kinase 33 (Homo sapiens) (UniProt Q9BYT3); conditions: Compound concentration 1000.0 nM
[37] = target: STE20/SPS1-related proline-alanine-rich protein kinase (Homo sapiens) (UniProt Q9UEW8); conditions: Compound concentration 1000.0 nM
[38] = target: Serine/threonine-protein kinase TAO2 (Homo sapiens) (UniProt Q9UL54); conditions: Compound concentration 1000.0 nM
[39] = target: Serine/threonine-protein kinase VRK2 (Homo sapiens) (UniProt Q86Y07); conditions: Compound concentration 1000.0 nM
[40] = target: Wee1-like protein kinase (Homo sapiens) (UniProt P30291); conditions: Compound concentration 1000.0 nM
[41] = target: Mitogen-activated protein kinase kinase kinase 19 (Homo sapiens) (UniProt Q56UN5); conditions: Compound concentration 1000.0 nM
[42] = target: Tyrosine-protein kinase ZAP-70 (Homo sapiens) (UniProt P43403); conditions: Compound concentration 1000.0 nM
[43] = target: D(4) dopamine receptor (Homo sapiens) (UniProt P21917); conditions: Compound concentration 10.0 uM
[44] = target: Muscarinic acetylcholine receptor M2 (Homo sapiens) (UniProt P08172); conditions: Compound concentration 10.0 uM
Chain of Muscarinic acetylcholine receptor M2 (Homo sapiens) (P08172 whole entry): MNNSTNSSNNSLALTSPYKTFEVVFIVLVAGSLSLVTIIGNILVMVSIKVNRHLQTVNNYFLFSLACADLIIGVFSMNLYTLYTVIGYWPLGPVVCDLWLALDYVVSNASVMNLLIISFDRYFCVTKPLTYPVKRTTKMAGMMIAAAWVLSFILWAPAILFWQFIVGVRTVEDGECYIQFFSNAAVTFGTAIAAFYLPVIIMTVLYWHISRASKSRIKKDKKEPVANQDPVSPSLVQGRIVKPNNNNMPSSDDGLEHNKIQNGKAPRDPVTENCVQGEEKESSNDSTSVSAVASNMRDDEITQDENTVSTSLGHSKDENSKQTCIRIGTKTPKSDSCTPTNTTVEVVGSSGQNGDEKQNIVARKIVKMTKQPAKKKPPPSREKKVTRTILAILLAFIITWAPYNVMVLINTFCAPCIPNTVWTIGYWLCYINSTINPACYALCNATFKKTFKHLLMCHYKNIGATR

[45] = target: Muscarinic acetylcholine receptor M4 (Homo sapiens) (UniProt P08173); conditions: Compound concentration 10.0 uM

Cc1nc(N2CC[C@@H](O)C2)ncc1-c1cc(C(F)(F)F)cc2[nH]ncc12 [TP-004]
inactive: residual activity [1] 100% | residual activity [2] 87% | residual activity [3] 80% | residual activity [4] 100% | residual activity [5] 100% | residual activity [6] 63% | residual activity [7] 71% | residual activity [8] 68% | residual activity [9] 100% | residual activity [10] 82% | residual activity [11] 100% | residual activity [12] 77% | residual activity [13] 100% | residual activity [14] 83% | residual activity [15] 90% | residual activity [16] 90% | residual activity [17] 87% | residual activity [18] 76% | residual activity [19] 100% | residual activity [20] 100% | residual activity [21] 100% | residual activity [22] 58% | residual activity [23] 100% | residual activity [24] 58% | residual activity [25] 100% | residual activity [26] 100% | residual activity [27] 96% | residual activity [28] 71% | residual activity [29] 58% | residual activity [30] 66% | residual activity [31] 72% | residual activity [32] 100% | residual activity [33] 100% | residual activity [34] 98% | residual activity [35] 100% | residual activity [36] 100% | residual activity [37] 99% | residual activity [38] 100% | residual activity [39] 86% | residual activity [40] 73% | residual activity [41] 67% | residual activity [42] 65% | inhibition [43] 7.69% | inhibition [44] -8.94% | inhibition [45] 5.7%
